Measurements from paper PMC5096027, “Naturally Inspired Peptide Leads: Alanine Scanning Reveals an Actin‐Targeting Thiazole Analogue of Bisebromoamide” (Chembiochem, 2016).
Numbered stars: 1 amine (or outer) side, 2 acyl side, 3 side chain; on linkers, the order of the positions; unused ones are H or OH. Square brackets hold non-standard residues; d marks the D form. Peptide text beside a SMILES is read from it. * marks the point of attachment. X1 = C[C@H]1C[C@@H](c2nc(C(=O)[*:2])cs2)N([*:1])C1; Pyrrolidine(2S-propanoyl) = CCC(=O)[C@@H]1CCCN1*; dNMeTyr(3-Br) = CN[C@H](Cc1ccc(O)c(Br)c1)C(=O)O; NMeF = CN[C@@H](Cc1ccccc1)C(=O)O; Piv = CC(C)(C)C(=O)*

Assays:
protein kinase C (PKC) = test: Reverse phase protein array (RPPA) profiling, PKC signalling; assay type: cell-based, human; conditions: HCT116 cell lysates, 3.0–0.03 μM, 24 h exposure, normalised to DMSO
Source text: (§1) The only clearly discernible inhibition of pathway signalling was for protein kinase C (PKC); there was discernible reduction in total protein expression of the insulin receptor substrate protein IRS‐1 (Figure S2).
(§2) Reverse phase protein array methods: The abundance of total protein and phosphorylated protein epitopes was quantified by using a Zeptosens reverse phase protein microarray platform (Bayer Technology Services, Leverkusen, Germany) as previously described.30 Briefly, HCT116 cells were seeded (4×10^5 cells per well) in six‐well plates. Cells were pre‐incubated in treatment‐free medium for 48 h prior to addition of Bis1–3 at six‐point half‐log doses (3.0–0.03 μM) and incubation for 30 min, 3 h and 24 h. Control samples were treated with medium containing DMSO (0.1 % v/v). The medium was then removed, and the cells were lysed by incubation with CLB1 buffer (Zeptosens) for 30 min. Cell lysates were normalised to a uniform protein concentration with CSBL1 spotting buffer (Zeptosens) prior to preparing a final fourfold concentration series of ([…] mL^−1). The concentration series of each sample was printed onto ZeptoChip protein microarray chips (Zeptosens) under controlled conditions (50 % humidity, 14 °C) by using a Nano‐Plotter NP21/E non‐contact printer (GeSIM, Radeberg, Germany). Single droplets (400 pL) were deposited onto the chips. A reference grid (four columns, 22 rows) of Alexa Fluor 647‐conjugated BSA (Invitrogen) was spotted onto each sub‐array; samples were spotted between reference columns. […] Microarray images representing the longest exposure without saturation of the fluorescence signal were automatically selected for analysis in ZeptoView 3.1 software. A weighted linear‐fit through the fourfold concentration series was used to calculate relative fluorescence intensity (RFI). […]
(§3) Figure S2. […] The mechanism-of-action of Tz-BBA analogues Bis1-3 at the post translational pathway level was evaluated against a panel of 62 protein and phospho-protein analytes by reverse phase protein array (RPPA). […]

IRS‐1 = test: Reverse phase protein array (RPPA) profiling, IRS-1 total protein expression; assay type: cell-based, human; conditions: HCT116 cell lysates, 3.0–0.03 μM, 24 h exposure, normalised to DMSO
Source text: as §1, §2, §3

HCT116 cells [1] = test: IncuCyte ZOOM kinetic cell growth (confluence) assay; assay type: cell-based, human; conditions: half-log dose response, kinetic readout every 3 h
Procedure: (§4) The effects of Bis1–6 on the growth of HCT116 cells (human colon cancer cell‐line) were assessed on an IncuCyte Zoom platform. HCT116 cells express an activating Ras mutation, and represent an aggressive and common form of human colon cancer.26 Dasatinib (dual Src‐Abl tyrosine kinase inhibitor) and DMSO (vehicle, 0.1 % v/v) were used as controls. […] The relative activity of all the analogues was further evaluated by testing each in an eight‐point half‐log dose–response assay (alamarBlue cell viability assay).
(§5) High‐content imaging methods: Kinetic cell growth and apoptosis assays were performed with an IncuCyte ZOOM live‐cell imaging system (Essen Bioscience, Ann Arbor, MI). Cytoskeletal morphology assays were performed on an ImageXpress Micro High‐Content Analysis System (Molecular Devices, Sunnyvale, CA).
Apoptosis assay: Cells were seeded in a 96‐well plate (5000 cells per well) and incubated for 24 h before treatment. […] Apoptosis was detected with the cell‐permeable caspase biosensor NucView 488 (Biotium, Hayward, CA), which was added (1 μM) at the same time as compound. IncuCyte imaging software automatically quantifies cell density and NucView/Caspase positive objects at time points following compound addition. This provided a kinetic readout of cell growth and apoptosis induction in cells after addition of each analogue. […]

HCT116 cells [2] = test: Cytoskeletal morphology assay (ImageXpress high-content imaging, F-actin/DAPI); assay type: cell-based, human; conditions: 1 μM, 48 h, F-actin (phalloidin) and DAPI staining
Source text: Perhaps most striking in terms of identifying a mechanism for the cytotoxicity were the morphological images collected on an ImageXpress high content microscope (Figure 2). […] The morphological changes induced by Bis1 and Bis2 are in good accord with those previously reported for the parent compound (BBA) in HeLa cells,8 and indicate that the switch from thiazoline to thiazole to facilitate the generation of these Tz‐BBA analogues by SPPS has not impaired activity.
Figure 2 HCT116 cytoskeletal morphology after treatment with 1 μM Bis1–6 for 48 h. Cells were permeabilised and fixed in paraformaldehyde prior to staining nuclei (DAPI, blue) and filamentous‐actin fibres (F‐actin; phalloidin conjugated to Alexa Fluor […], green). Images were acquired in an automated ImageXpress microXL high‐content imaging platform (Molecular Devices) with a 20× objective; images show HCT116 cell morphology for DMSO (control) and each treatment group: A) DMSO; B) cytochalasin D; C) Bis1; D) Bis2; E) Bis3 (representative also for Bis4); F) Bis 6 (representative also for Bis5).
as §5
Cytoskeletal morphology assays: Cells were seeded in a 96‐well plates (5000 cells per well) and incubated for 24 h before treatment. The medium was then replaced with fresh medium containing Bis1–6 as eight‐point half‐log doses and incubated for 48 h. Control cells were incubated with DMSO (0.1 % v/v). All images were acquired on an automated ImageXpress Micro XL high‐content imaging platform (Molecular Devices) with a ×20 Plan Fluor ELWD Ph1 DM objective (Nikon) and a 16‐bit camera (binning resolution of 1). Four separate images per well were acquired by using laser‐based autofocus parameters optimised for cell plates and cell type. All immunostaining procedures were performed at room temperature in 96‐well plates (100 μL unless otherwise stated). Cells were fixed by addition of paraformaldehyde (8 % in PBS; final concentration 4 %) and incubated for 20 min. Cells were washed three times with PBS then incubated with a mixture of phalloidin conjugated to Alexa Fluor […] (Molecular Probes (Thermo Fisher) A12379; diluted 1:500) and 4′,6‐diamidino‐2‐phenylindole (DAPI; Sigma–Aldrich D8417) for 45 min in the absence of light. Cells were washed three times with PBS before imaging. Representative images are in Figure 2.

actin‐filament = test system: actin‐filament; design: method as in PMID 21322638; conditions: cited from earlier work
[3] = test system: panel of 39 human cancer cell lines; design: method as in PMID 19803465; conditions: cited from earlier work
ERK = test system: ERK; design: method as in PMID 19803465; conditions: NRK cells; cited from earlier work
HeLa S3 cells = test system: HeLa S3 cells; design: method as in PMID 19803465; conditions: cited from earlier work
ERK and Akt = test system: ERK and Akt; design: method as in PMID 24133625; conditions: two renal cancer cell lines; cited from earlier work
HCT116 cells [4] = test: alamarBlue cell viability assay; assay type: cell-based, human; conditions: 72 h incubation, eight-point half-log doses 0.003–10 μM, alamarBlue fluorescence, relative to DMSO control, n=3
Procedure: as §4
Figure 1 HCT116 cell viability. Dose–response curves determined by an alamarBlue cell viability assay after incubation with Bis1–6 (0.003–10 μM) for 72 h. Conversion of the alamarBlue reagent to the activated fluorescent resorufin cell viability indicator was calculated for DMSO (vehicle) and compound‐treated samples. Viability is expressed relative to control (DMSO). Dose–response plots are mean±SD (n=3).
Cell viability assay: HCT116 cells were seeded in a 96‐well plate (5000 cells per well) and incubated for 48 h before treatment. The medium (DMEM with 10 % foetal calf serum and 2 mM glutamine) was replaced with fresh medium containing each of Bis1–6 as eight‐point half‐log doses, and incubated for 3 days. alamarBlue (Invitrogen) cell viability reagent (10 % v/v) was added, and the plate was incubated for 1 h. Fluorescence was detected with an EnVision multilabel reader (λ ex=540 nm, λ em=590 nm; PerkinElmer). All data were normalised to DMSO‐treated cells, and curves were fitted in GraphPad Prism with a sigmoidal variable‐slope curve.

Compound: CCC(=O)[C@@H]1CCCN1C(=O)[C@H](Cc1ccccc1)N(C)C(=O)[C@@H](CC(C)C)NC(=O)c1csc([C@@H]2C[C@H](C)CN2C(=O)[C@@H](Cc2ccc(O)c(Br)c2)N(C)C(=O)[C@H](C)NC(=O)C(C)(C)C)n1 [Bis1, thiazole‐bisebromoamide] (Piv-A[dNMeTyr(3-Br)][X1][dL][NMeF]-{Pyrrolidine(2S-propanoyl)})
- PKC pathway signalling (RPPA) (protein kinase C (PKC)): reduced activity of PKC
- total protein expression of IRS-1 (RPPA) (IRS‐1): reduced expression of IRS‐1
- repression of cell growth (confluence) (HCT116 cells [1]): most active
- cytoskeletal morphological changes relative to DMSO control (HCT116 cells [2]): clear disruption and aggregation of F‐actin filaments together with reduced cell‐substrate adhesion

Compound: bisebromoamide [BBA]
- action on actin filaments (actin‐filament): actin‐filament stabiliser
- GI50 [3]: 40 nM
- phosphorylation of ERK (ERK): inhibited
- IC50 against HeLa S3 cells (HeLa S3 cells): 0.04 µg/mL
- phosphorylation of both ERK and Akt (ERK and Akt): inhibited

Compound: CCC(=O)[C@@H]1CCCN1C(=O)[C@H](Cc1ccccc1)N(C)C(=O)[C@H](C)NC(=O)c1csc([C@@H]2C[C@H](C)CN2C(=O)[C@@H](Cc2ccc(O)c(Br)c2)N(C)C(=O)[C@H](C)NC(=O)C(C)(C)C)n1 [Bis4] (Piv-A[dNMeTyr(3-Br)][X1]A[NMeF]-{Pyrrolidine(2S-propanoyl)})
- EC50 (HCT116 cells [4]): 178 nM
- cytoskeletal morphological changes relative to DMSO control (HCT116 cells [2]): more elongated cells with prominent F‐actin filaments and promotion of cell‐substrate adhesion

Compound: CCC(=O)[C@@H]1CCCN1C(=O)[C@H](C)NC(=O)[C@@H](CC(C)C)NC(=O)c1csc([C@@H]2C[C@H](C)CN2C(=O)[C@@H](Cc2ccc(O)c(Br)c2)N(C)C(=O)[C@H](C)NC(=O)C(C)(C)C)n1 [Bis3] (Piv-A[dNMeTyr(3-Br)][X1][dL]A-{Pyrrolidine(2S-propanoyl)})
- EC50 (HCT116 cells [4]): 483 nM
- PKC pathway signalling (RPPA) (protein kinase C (PKC)): more affected by Bis1 and Bis2 than by Bis3
- total protein expression of IRS-1 (RPPA) (IRS‐1): more affected by Bis1 and Bis2 than by Bis3
- cytoskeletal morphological changes relative to DMSO control (HCT116 cells [2]): more elongated cells with prominent F‐actin filaments and promotion of cell‐substrate adhesion

Compound: CC(C)C[C@@H](NC(=O)c1csc([C@@H]2C[C@H](C)CN2C(=O)[C@@H](Cc2ccc(O)c(Br)c2)N(C)C(=O)[C@H](C)NC(=O)C(C)(C)C)n1)C(=O)N(C)[C@@H](Cc1ccccc1)C(=O)N[C@@H](C)C(N)=O [Bis2] (Piv-A[dNMeTyr(3-Br)][X1][dL][NMeF]A-NH2)
- EC50 (HCT116 cells [4]): 71 nM
- PKC pathway signalling (RPPA) (protein kinase C (PKC)): reduced activity of PKC
- total protein expression of IRS-1 (RPPA) (IRS‐1): reduced expression of IRS‐1
- cytoskeletal morphological changes relative to DMSO control (HCT116 cells [2]): clear disruption and aggregation of F‐actin filaments together with reduced cell‐substrate adhesion
